# Reference: ChEMBL document CHEMBL3758171 (Bioorg Med Chem, 2016)
# Key:
# Carbonic anhydrase 9 = Carbonic anhydrase 9 (Homo sapiens, UniProt Q16790)
# Carbonic anhydrase 12 = Carbonic anhydrase 12 (Homo sapiens, UniProt O43570); assay: Inhibition of human recombinant carbonic anhydrase 12 preincubated for 15 mins by stopped flow CO2 hydration assay
# Carbonic anhydrase 1 = Carbonic anhydrase 1 (Homo sapiens, UniProt P00915); assay: Inhibition of human recombinant carbonic anhydrase 1 preincubated for 15 mins by stopped flow CO2 hydration assay
# Chain of Carbonic anhydrase 1 (P00915 whole entry): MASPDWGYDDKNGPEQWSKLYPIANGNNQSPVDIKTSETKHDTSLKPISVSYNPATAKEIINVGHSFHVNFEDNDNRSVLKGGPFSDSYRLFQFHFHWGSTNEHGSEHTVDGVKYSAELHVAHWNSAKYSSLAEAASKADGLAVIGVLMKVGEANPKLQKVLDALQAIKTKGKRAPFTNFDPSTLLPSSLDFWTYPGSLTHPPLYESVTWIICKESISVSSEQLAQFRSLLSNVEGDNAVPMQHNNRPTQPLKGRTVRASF
# Carbonic anhydrase 2 = Carbonic anhydrase 2 (Homo sapiens, UniProt P00918); assay: Inhibition of human recombinant carbonic anhydrase 2 preincubated for 15 mins by stopped flow CO2 hydration assay
# Chain of Carbonic anhydrase 12 (O43570 whole entry): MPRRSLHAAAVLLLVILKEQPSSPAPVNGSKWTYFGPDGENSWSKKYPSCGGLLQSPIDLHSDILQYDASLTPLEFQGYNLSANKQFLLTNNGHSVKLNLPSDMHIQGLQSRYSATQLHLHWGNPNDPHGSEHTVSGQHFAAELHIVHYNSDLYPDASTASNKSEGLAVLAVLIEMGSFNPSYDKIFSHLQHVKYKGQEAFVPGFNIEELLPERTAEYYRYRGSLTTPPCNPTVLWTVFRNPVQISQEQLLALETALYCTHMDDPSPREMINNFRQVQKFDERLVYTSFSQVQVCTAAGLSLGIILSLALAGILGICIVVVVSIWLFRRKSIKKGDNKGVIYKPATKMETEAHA
SMILES,Ki (Carbonic anhydrase 9) [nM],Ki (Carbonic anhydrase 12) [nM],Ki (Carbonic anhydrase 1) [nM],Ki (Carbonic anhydrase 2) [nM]
O=C(CN1C(=O)c2ccccc2S1(=O)=O)c1ccc(F)cc1,23,41,1110,> 10000
O=C(CN1C(=O)c2ccccc2S1(=O)=O)c1ccc(Cl)cc1Cl,191,3.9,1480,> 10000
Cc1ccccc1CN1C(=O)c2ccccc2S1(=O)=O,221,16,1370,> 10000
O=C(O)CN1C(=O)c2ccccc2C1=O,223,4.3,> 10000,> 10000
O=C(O)CN1C(=O)c2ccccc2S1(=O)=O,–,–,110000,78000
Cc1cccc(CN2C(=O)c3ccccc3S2(=O)=O)c1,184,26,–,> 10000
CC1=CC(=O)N(Cc2ccc(Cl)cc2)S(=O)(=O)O1,239,4.5,> 10000,> 10000
CC1=CC(=O)N(Cc2ccc([N+](=O)[O-])cc2)S(=O)(=O)O1,210,4.3,> 10000,> 10000
CC1=CC(=O)N(CC(=O)c2ccc(-c3ccccc3)cc2)S(=O)(=O)O1,26,4,> 10000,> 10000
O=C1c2ccccc2S(=O)(=O)N1Cc1ccc(Br)cc1,22,4.3,> 10000,> 10000
O=C1c2ccccc2S(=O)(=O)N1Sc1ccccc1[N+](=O)[O-],18,4,> 10000,> 10000
CC1=CC(=O)N(Cc2ccc(F)cc2)S(=O)(=O)O1,261,4.9,> 10000,> 10000
O=C1c2ccccc2S(=O)(=O)N1Cc1ccc(Cl)cc1,19,4.4,–,> 10000
Cc1ccc(CN2C(=O)c3ccccc3S2(=O)=O)cc1,234,5.1,> 10000,> 10000
O=C1c2ccccc2S(=O)(=O)N1Cc1ccccc1C(F)(F)F,616,15,–,> 10000
COc1cccc(C(=O)CN2C(=O)c3ccccc3S2(=O)=O)c1,1570,6,–,> 10000
CC1=CC(OCC(=O)c2ccc(Br)cc2)=NS(=O)(=O)O1,196,3.6,–,> 10000
CC1=CC(=O)N(CC(=O)c2ccc([N+](=O)[O-])cc2)S(=O)(=O)O1,2480,3.9,–,1750
O=C1c2ccccc2S(=O)(=O)N1Cc1ccc(F)cc1,539,41,–,> 10000
O=C1c2ccccc2S(=O)(=O)N1Cc1cccc(C(F)(F)F)c1,19,17,> 10000,> 10000
CC1=CC(=O)N(CC(=O)c2ccc(C#N)cc2)S(=O)(=O)O1,27,4.1,–,140
O=C1c2ccccc2S(=O)(=O)N1Cc1ccc([N+](=O)[O-])cc1,1170,29,–,> 10000
COc1cccc(C(=O)CN2C(=O)C=C(C)OS2(=O)=O)c1,–,5.6,> 10000,> 10000
O=C1c2ccccc2S(=O)(=O)N1Cc1ccc(C(F)(F)F)cc1,51,4.7,–,> 10000
CC1=CC(OCC(=O)c2ccc(Cl)cc2Cl)=NS(=O)(=O)O1,265,5.5,> 10000,> 10000
O=C1NCc2ccccc21,174,4.1,> 10000,> 10000
